Laboratory results published in paper doi:10.1101/2024.08.13.607785v1 (biorxiv, 2024).
Where two headings read alike, the source gives them in different places.

Columns and labels:
Assay in all cases: biochemical
Parameters in all cases: species or system human cell line lysate
[1] = molecular target: Isoform 2 of Protein-tyrosine kinase 2-beta ; PTK2B ; Q14289-2 (Homo sapiens, UniProt Q14289)
[2] = molecular target: Microtubule-associated serine/threonine-protein kinase 3 ; MAST3 ; O60307 (Homo sapiens, UniProt O60307)
[3] = molecular target: Misshapen-like kinase 1 ; MINK1 ; Q8N4C8 (Homo sapiens, UniProt Q8N4C8)
[4] = molecular target: Serine/threonine-protein kinase MRCK beta ; CDC42BPB ; Q9Y5S2 (Homo sapiens, UniProt Q9Y5S2)
[5] = molecular target: Serine/threonine-protein kinase PAK 4 ; PAK4 ; O96013 (Homo sapiens, UniProt O96013)
[6] = molecular target: Casein kinase II subunit alpha ; CSNK2A1 ; P68400 (Homo sapiens, UniProt P68400)
[7] = molecular target: Isoform 2 of Tyrosine-protein kinase Lyn ; LYN ; P07948-2 (Homo sapiens, UniProt P07948)
[8] = molecular target: Serine/threonine-protein kinase pim-2 ; PIM2 ; Q9P1W9 (Homo sapiens, UniProt Q9P1W9)
[9] = molecular target: T1, Ephrin type-B receptor 1 ; EPHB1 ; P54762 (Homo sapiens, UniProt P54762)
T1 sequence (P54762 1-984): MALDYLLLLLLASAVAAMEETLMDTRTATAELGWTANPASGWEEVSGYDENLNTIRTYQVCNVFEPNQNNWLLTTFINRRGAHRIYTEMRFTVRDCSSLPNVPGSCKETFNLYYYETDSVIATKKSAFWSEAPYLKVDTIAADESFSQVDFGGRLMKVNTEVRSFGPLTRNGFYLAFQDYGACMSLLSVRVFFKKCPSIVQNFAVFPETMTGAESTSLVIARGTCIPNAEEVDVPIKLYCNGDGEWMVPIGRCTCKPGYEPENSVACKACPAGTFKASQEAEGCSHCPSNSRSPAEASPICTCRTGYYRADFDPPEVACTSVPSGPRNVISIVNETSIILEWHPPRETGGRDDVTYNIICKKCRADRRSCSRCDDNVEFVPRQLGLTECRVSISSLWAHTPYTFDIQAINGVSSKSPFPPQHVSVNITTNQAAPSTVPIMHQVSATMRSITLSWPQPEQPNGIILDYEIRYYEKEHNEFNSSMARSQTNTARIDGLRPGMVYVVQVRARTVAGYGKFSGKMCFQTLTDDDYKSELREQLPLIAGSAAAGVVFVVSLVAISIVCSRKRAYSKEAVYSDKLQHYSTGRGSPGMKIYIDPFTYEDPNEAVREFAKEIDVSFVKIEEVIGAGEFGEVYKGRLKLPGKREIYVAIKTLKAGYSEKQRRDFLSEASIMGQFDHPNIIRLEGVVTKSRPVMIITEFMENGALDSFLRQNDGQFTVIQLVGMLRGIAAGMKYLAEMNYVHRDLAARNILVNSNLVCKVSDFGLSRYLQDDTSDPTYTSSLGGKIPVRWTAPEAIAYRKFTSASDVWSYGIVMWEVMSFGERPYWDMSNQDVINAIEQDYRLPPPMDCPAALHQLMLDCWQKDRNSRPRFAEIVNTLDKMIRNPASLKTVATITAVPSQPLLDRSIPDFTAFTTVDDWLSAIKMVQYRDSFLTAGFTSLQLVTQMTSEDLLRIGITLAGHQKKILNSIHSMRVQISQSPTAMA

[10] = molecular target: Leucine-rich repeat serine/threonine-protein kinase 2 ; LRRK2 ; Q5S007 (Homo sapiens, UniProt Q5S007)
[11] = molecular target: EKC/KEOPS complex subunit TP53RK ; TP53RK ; Q96S44 (Homo sapiens, UniProt Q96S44)
[12] = molecular target: Phosphatidylinositol 4-phosphate 3-kinase C2 domain-containing subunit ; PIK3C2B ; O00750 (Homo sapiens, UniProt O00750)
[13] = molecular target: Maternal embryonic leucine zipper kinase ; MELK ; Q14680 (Homo sapiens, UniProt Q14680)
[14] = molecular target: Casein kinase I isoform gamma-1 ; CSNK1G1 ; Q9HCP0 (Homo sapiens, UniProt Q9HCP0)
[15] = molecular target: Serine/threonine-protein kinase BRSK2 ; BRSK2 ; Q8IWQ3 (Homo sapiens, UniProt Q8IWQ3)
[16] = molecular target: Isoform 4 of Serine/threonine-protein kinase Nek2 ; NEK2 ; P51955-4 (Homo sapiens, UniProt P51955)
[17] = read-out: BAY-1143572 (10 µM) / %Intensity relative to DMSO
[18] = read-out: BAY-1251152 (10 µM) / %Intensity relative to DMSO

Sequence of Misshapen-like kinase 1 ; MINK1 ; Q8N4C8 (Q8N4C8 whole entry): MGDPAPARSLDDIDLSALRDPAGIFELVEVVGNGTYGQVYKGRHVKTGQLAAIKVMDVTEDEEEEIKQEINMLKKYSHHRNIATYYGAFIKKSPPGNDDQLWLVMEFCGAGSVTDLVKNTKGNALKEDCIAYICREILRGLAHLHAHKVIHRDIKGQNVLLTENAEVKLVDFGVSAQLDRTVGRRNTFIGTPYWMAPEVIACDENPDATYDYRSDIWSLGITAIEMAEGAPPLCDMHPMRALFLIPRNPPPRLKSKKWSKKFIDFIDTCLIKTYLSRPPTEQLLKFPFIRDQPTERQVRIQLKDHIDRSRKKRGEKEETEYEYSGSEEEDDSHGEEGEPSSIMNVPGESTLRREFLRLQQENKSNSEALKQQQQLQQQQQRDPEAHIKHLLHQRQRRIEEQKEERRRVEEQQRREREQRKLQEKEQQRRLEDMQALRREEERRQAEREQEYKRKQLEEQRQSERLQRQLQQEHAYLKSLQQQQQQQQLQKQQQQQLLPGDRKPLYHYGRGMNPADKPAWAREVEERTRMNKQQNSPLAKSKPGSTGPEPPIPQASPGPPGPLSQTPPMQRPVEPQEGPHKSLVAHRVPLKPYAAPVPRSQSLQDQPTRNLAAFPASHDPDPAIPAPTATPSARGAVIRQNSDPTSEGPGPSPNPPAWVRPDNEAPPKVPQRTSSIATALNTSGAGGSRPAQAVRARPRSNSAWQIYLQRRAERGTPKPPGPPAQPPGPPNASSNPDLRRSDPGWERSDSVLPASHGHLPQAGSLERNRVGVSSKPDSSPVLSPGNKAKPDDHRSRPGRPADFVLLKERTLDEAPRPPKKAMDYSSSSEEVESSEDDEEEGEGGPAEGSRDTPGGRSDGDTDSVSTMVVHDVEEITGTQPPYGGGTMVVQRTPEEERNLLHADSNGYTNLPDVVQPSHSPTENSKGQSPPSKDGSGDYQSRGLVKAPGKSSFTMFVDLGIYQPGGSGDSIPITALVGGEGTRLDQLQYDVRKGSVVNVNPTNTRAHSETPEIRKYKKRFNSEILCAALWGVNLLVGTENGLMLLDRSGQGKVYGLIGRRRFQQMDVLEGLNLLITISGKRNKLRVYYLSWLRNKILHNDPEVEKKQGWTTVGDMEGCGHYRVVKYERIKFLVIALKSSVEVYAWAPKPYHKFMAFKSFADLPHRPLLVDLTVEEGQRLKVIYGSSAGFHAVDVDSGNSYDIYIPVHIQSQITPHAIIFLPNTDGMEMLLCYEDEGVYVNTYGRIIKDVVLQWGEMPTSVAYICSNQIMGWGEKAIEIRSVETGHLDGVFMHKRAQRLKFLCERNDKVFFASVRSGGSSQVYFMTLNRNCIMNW
Sequence of Casein kinase II subunit alpha ; CSNK2A1 ; P68400 (P68400 whole entry, canonical isoform, one chain of several): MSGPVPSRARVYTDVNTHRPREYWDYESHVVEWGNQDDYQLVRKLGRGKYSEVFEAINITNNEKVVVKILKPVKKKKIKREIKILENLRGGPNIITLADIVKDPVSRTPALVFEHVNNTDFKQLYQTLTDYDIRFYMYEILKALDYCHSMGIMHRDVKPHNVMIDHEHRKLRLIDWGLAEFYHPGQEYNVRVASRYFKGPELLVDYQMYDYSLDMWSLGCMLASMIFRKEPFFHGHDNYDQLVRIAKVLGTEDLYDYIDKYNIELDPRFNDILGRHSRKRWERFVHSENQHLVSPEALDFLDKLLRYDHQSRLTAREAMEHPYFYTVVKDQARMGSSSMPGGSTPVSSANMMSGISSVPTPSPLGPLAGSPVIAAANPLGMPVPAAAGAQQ
Sequence of Maternal embryonic leucine zipper kinase ; MELK ; Q14680 (Q14680 whole entry, canonical isoform): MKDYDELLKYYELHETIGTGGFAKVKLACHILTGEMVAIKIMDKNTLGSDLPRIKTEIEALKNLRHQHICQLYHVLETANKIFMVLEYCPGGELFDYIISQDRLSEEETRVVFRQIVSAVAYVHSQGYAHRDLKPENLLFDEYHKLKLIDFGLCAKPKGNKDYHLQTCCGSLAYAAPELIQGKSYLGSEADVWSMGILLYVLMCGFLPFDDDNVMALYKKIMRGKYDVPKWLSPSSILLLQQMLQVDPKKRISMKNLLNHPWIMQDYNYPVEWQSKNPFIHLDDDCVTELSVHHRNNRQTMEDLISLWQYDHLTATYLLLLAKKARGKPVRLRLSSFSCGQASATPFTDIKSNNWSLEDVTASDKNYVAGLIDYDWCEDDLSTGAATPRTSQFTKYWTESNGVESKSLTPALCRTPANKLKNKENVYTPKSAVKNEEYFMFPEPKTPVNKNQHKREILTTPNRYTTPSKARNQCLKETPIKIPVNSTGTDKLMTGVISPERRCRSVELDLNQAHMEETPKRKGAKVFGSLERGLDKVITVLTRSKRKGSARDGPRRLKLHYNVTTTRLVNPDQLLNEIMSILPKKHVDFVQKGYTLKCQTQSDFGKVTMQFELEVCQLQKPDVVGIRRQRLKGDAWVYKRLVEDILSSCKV
Sequence of Microtubule-associated serine/threonine-protein kinase 3 ; MAST3 ; O60307 (O60307 whole entry, one chain of several): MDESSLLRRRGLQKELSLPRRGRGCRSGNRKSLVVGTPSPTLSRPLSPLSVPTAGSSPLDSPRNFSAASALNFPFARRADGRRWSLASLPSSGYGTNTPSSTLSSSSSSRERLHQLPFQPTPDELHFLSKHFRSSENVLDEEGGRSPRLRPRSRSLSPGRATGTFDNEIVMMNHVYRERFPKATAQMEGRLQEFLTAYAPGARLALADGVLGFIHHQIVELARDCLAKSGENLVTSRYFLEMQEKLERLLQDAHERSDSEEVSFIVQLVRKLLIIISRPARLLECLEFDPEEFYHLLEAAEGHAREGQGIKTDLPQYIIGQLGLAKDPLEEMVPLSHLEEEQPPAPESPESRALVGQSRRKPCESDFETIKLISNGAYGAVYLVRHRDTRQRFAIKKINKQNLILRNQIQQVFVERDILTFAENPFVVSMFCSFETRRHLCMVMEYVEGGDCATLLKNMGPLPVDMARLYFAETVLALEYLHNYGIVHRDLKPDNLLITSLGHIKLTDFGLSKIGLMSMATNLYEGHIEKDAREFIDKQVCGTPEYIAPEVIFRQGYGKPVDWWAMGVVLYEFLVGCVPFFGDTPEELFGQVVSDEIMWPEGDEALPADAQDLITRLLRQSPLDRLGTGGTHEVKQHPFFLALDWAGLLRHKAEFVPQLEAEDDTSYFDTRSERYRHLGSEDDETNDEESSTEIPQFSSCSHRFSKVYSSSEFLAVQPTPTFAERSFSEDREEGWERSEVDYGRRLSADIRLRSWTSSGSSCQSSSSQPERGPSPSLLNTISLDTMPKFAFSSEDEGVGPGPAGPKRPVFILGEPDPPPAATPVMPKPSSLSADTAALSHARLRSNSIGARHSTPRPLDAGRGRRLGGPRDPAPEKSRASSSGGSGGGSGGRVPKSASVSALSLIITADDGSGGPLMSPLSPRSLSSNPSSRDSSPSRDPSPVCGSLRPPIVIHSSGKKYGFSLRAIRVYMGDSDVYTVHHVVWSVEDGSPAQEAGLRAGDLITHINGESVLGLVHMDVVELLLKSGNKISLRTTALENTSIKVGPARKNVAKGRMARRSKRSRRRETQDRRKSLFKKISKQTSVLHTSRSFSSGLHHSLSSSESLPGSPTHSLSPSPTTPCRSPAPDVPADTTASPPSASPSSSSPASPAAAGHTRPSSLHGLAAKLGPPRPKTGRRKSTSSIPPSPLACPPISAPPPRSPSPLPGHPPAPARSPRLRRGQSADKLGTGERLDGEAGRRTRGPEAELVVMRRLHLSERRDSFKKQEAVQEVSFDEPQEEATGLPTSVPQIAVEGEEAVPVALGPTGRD
Sequence of Serine/threonine-protein kinase pim-2 ; PIM2 ; Q9P1W9 (Q9P1W9 whole entry, one chain of several): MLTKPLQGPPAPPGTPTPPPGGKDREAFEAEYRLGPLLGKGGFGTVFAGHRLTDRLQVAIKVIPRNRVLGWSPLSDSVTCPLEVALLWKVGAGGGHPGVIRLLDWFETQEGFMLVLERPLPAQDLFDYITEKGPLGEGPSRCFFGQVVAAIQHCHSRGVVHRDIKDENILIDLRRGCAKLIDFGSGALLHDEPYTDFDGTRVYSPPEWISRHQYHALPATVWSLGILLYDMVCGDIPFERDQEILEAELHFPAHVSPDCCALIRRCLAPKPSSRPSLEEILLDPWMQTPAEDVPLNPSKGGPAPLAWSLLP
Sequence of Isoform 2 of Protein-tyrosine kinase 2-beta ; PTK2B ; Q14289-2 (Q14289 whole entry, canonical isoform): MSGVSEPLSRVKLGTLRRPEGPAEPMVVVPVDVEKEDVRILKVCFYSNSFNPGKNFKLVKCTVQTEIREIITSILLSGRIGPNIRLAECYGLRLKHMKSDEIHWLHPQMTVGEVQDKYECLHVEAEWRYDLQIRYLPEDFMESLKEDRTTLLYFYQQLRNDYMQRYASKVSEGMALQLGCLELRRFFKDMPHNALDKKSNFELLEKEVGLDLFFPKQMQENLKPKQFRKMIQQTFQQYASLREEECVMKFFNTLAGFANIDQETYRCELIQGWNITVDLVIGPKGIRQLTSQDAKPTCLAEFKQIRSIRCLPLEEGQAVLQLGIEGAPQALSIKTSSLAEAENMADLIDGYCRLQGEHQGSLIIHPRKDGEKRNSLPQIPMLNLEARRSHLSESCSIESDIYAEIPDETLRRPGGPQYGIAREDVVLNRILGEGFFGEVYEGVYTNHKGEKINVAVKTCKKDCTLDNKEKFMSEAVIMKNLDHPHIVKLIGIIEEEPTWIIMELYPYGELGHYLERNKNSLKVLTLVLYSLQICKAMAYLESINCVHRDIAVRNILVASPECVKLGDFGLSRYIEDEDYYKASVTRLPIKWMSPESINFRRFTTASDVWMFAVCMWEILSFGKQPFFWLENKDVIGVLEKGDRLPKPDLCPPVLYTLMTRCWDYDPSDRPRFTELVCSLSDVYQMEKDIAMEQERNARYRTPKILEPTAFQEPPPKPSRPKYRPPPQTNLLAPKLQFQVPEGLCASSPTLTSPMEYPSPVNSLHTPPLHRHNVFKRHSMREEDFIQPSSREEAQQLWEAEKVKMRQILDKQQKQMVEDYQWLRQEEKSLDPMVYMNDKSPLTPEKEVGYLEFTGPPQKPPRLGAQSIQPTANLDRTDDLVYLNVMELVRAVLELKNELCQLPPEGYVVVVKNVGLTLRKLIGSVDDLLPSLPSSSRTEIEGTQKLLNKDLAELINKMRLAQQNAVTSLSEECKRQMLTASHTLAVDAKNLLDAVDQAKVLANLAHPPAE

Q: Which remaining activity at 10 µM [1, 17] does the source give for `COc1cc(F)ccc1-c1ncnc(Nc2cccc(C[S@](C)(=N)=O)c2)n1` [BAY-1143572] here?
A: 100%

Q: And the remaining activity at 10 µM [2, 17]?
A: 79.4%

Q: What about the remaining activity at 10 µM [3, 17] of the same molecule?
A: 72.9%

Q: And the remaining activity at 10 µM [4, 17]?
A: 102%

Q: What about the remaining activity at 10 µM [5, 17] of the same molecule?
A: 105%

Q: What about the remaining activity at 10 µM [6, 17] of the same molecule?
A: 110%

Q: And the remaining activity at 10 µM [7, 17]?
A: 102%

Q: And the remaining activity at 10 µM [8, 17]?
A: 132%

Q: And the remaining activity at 10 µM [9, 17]?
A: 91.7%

Q: And the remaining activity at 10 µM [10, 17]?
A: 109%

Q: And the remaining activity at 10 µM [11, 17]?
A: 122%

Q: And the remaining activity at 10 µM [12, 17]?
A: 79.7%

Q: And the remaining activity at 10 µM [13, 17]?
A: 116%

Q: And the remaining activity at 10 µM [14, 17]?
A: 175%

Q: And the remaining activity at 10 µM [15, 17]?
A: 104%

Q: What about the remaining activity at 10 µM [16, 17] of the same molecule?
A: 115%

Q: What does the source list for `COc1cc(F)ccc1-c1cc(Nc2cc(CS(C)(=N)=O)ccn2)ncc1F` (centres unmarked) [BAY-1251152]?
A: remaining activity at 10 µM [1, 18]: 98.1%; remaining activity at 10 µM [2, 18]: 82.9%; remaining activity at 10 µM [3, 18]: 54.1%; remaining activity at 10 µM [4, 18]: 101%; remaining activity at 10 µM [5, 18]: 110%; remaining activity at 10 µM [6, 18]: 105%; remaining activity at 10 µM [7, 18]: 107%; remaining activity at 10 µM [8, 18]: 102%; remaining activity at 10 µM [9, 18]: 108%; remaining activity at 10 µM [10, 18]: 107%; remaining activity at 10 µM [11, 18]: 118%; remaining activity at 10 µM [12, 18]: 84.6%; remaining activity at 10 µM [13, 18]: 110%; remaining activity at 10 µM [14, 18]: 163%; remaining activity at 10 µM [15, 18]: 114%; remaining activity at 10 µM [16, 18]: 114%
